Conditions: rat, in vivo
Description: The animals were then housed in metabolic cages and the feces were collected every three hours for a period of four days. At given time intervals, the rats were X-rayed, and the distribution of the microspheres in the stomach and in the intestine was followed. The collected feces were also X-rayed in order to monitor the total transit time of the microspheres through the GI tract.
Tests were conducted in areas of distinct pH and physiology: the stomach (low pH range), and the intestine (basic environment, pH ranging from 5-7, in the proximal to distal regions, respectively), FIGS. 6a, 6b, and 6c.

Substance: alginate
- retention time in the intestine, ranking: longest retention time from the group of hydrogels

Source: US6365187B2, “Bioadhesive microspheres and their use as drug delivery and imaging systems” (priority 1992, dated 2002)
